For assay [1], the target named is T1, glucocorticoid receptor (GR) (Rattus norvegicus, UniProt P06536).
T1 construct: expressed in transfected cells; host or cells: Cos7
T1 sequence (P06536 1-795): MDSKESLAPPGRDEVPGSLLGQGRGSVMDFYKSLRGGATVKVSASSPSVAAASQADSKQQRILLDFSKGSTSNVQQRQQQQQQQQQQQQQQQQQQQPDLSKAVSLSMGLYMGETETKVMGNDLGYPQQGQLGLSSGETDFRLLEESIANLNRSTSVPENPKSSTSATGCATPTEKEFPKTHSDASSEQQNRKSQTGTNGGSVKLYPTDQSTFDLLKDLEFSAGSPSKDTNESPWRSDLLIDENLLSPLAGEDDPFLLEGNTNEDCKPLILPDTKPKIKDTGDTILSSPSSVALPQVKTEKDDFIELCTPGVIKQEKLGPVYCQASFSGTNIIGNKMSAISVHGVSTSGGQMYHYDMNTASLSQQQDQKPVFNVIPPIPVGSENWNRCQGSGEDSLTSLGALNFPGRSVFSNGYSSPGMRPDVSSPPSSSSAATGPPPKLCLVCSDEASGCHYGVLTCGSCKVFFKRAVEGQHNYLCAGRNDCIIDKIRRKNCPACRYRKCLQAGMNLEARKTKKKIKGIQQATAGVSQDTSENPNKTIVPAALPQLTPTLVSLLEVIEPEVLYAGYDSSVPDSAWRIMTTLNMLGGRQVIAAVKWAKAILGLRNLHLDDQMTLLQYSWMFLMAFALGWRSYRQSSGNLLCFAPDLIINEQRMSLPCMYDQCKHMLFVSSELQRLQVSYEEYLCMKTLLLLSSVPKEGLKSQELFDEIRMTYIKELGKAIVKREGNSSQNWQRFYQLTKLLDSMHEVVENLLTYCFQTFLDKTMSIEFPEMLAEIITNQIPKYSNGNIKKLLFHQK
It counts as cell-based.

Assay [2] deals with constitutive luciferase vector, pGL3 control. Format: cell-based.
The test system of assay [3] is tyrosine aminotransferase (TAT) in HTC cells. It counts as cell-based, rat.
In assay [4] the target is T1, glucocorticoid receptor (GR). Format: binding.
The subject of assay [5] is J774.1 cells. It counts as cell-based.
Assay [6] has as its system Raw264.7 cells. Format: cell-based.
Assay [7] deals with T2, progesterone receptor B (PR-B) (Homo sapiens, UniProt P06401).
T2 sequence (P06401 1-933): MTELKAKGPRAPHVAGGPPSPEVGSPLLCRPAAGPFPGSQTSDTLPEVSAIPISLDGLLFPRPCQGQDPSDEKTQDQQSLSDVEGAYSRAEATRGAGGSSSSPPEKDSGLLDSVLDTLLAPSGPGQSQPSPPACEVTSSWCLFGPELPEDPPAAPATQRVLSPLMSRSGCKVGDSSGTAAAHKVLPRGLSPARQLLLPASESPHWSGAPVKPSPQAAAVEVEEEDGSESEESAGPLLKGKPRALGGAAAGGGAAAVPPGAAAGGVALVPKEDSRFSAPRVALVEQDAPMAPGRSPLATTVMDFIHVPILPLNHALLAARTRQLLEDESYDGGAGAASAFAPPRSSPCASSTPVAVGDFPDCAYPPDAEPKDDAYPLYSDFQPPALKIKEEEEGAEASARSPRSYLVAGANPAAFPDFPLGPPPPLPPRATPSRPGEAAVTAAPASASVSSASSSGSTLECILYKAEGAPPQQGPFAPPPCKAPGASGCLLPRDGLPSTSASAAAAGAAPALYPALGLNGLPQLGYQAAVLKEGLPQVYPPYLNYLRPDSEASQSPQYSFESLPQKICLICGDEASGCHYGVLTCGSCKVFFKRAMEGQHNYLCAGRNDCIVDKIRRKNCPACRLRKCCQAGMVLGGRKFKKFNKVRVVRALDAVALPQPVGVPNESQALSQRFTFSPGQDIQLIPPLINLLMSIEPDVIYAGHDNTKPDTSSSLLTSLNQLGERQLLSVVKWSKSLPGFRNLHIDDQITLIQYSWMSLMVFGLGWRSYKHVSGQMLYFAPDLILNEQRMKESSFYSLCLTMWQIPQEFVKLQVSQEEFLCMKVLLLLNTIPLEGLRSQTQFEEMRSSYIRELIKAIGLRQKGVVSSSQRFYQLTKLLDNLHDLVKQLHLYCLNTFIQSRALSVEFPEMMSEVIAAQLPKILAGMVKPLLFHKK
Particulars: 100 nM progesterone; 2 ng/ml LF+500 ng/ml PA; RU486 up to 1 μM; pLTR luc.

Results on 6 compounds are retold here after US20060035813A1, “Methods and formulations comprising agonists and antagonists of nuclear hormone receptors” (priority 2002, published 2006).

Molecules are shown by their SMILES. “Also recorded” adds a separate entry of the source.

Take `COc1cccc(-c2cc(=O)c3ccccc3o2)c1N` [PD98059]: in assay [1], the “GR/GRE-specific effect of MAPK pathway inhibitor on Dex-induced GR transactivation” value was “does not affect GR transactivation; also recorded: no GRE specific effect; also recorded: did not alter GR repression; also recorded: does not have any GR specific effect” and the “effect on GRE-luciferase activity” value is “decreased luciferase activity”. In addition, the “effect on constitutive luciferase (pGL3 control)” value in assay [2] is on record as “decreased luciferase activity; also recorded: non-specific suppressive effect on luciferase”. For the same compound, the “effect of MAPK inhibitor on dexamethasone-induced TAT activity” value (shortened to “effect of MAPK inhibitor”) in assay [3] is “repress dexamethasone-induced TAT activity”.

In the case of `Nc1nccc(-c2c(-c3ccc(F)cc3)ncn2C2CCNCC2)n1` [SB220025], in assay [3], the “effect of MAPK inhibitor” value is on record as “repress dexamethasone-induced TAT activity”.

Regarding `C[S+]([O-])c1ccc(-c2nc(-c3ccncc3)c(-c3ccc(F)cc3)[nH]2)cc1` (centres unmarked) [SB203580], the “GR/GRE-specific effect of MAPK pathway inhibitor on Dex-induced GR transactivation” value in assay [1] is listed as “has no effect on GR-mediated transactivation”. Also, in assay [3], the “effect of MAPK inhibitor” value was “repress dexamethasone-induced TAT activity”.

`CC#C[C@]1(O)CC[C@H]2[C@@H]3CCC4=CC(=O)CCC4=C3[C@@H](c3ccc(N(C)C)cc3)C[C@@]21C` [RU 486, mifepristone]: in assay [1], the “mode of GR repression / antagonism” value is recorded as “competitive antagonist” and the “repression of Dex-induced GR transactivation in the presence of LeTx” value was “fully repressed; also recorded: fully repress”. The “competition with [3H] dexamethasone for binding to GR” value in assay [4] was “can compete”. Besides, the “effect of pretreatment on LeTx toxicity” value in assay [5] is listed as “does not prevent LeTx toxicity”. Further, in assay [6], the “effect of pretreatment on LeTx toxicity” value is “does not prevent LeTx toxicity”. For the same compound, in assay [7], the “repression of progesterone-induced PR-B transactivation in the presence of LeTx” value was “fully repress”.

`COc1ccc(C2CNC(=O)C2)cc1OC1CCCC1` (centres unmarked) [rolipram]: the “effect on LeTx repression of dexamethasone-induced TAT activity” value in assay [3] was “does not prevent LeTx repression”. Further, the “effect of rolipram on LeTx toxicity” value in assay [6] was “does not prevent LeTx toxicity”.

Consider `C[C@@H]1C[C@H]2[C@@H]3CCC4=CC(=O)C=C[C@]4(C)[C@@]3(F)[C@@H](O)C[C@]2(C)[C@@]1(O)C(=O)CO` [Dex, dexamethasone], for which, in assay [3], the “Dex concentration as low as which TAT is induced” value is 10 nM and the “induction of TAT activity” value is on record as “approximately 10 fold”.
